Laboratory results as given in US6905706B2, “Medicinal herbal extract carpediol for treating depression” (Swedish Herbal Institute, priority 2002, dated 2005).
Several values for one entry are separate records, joined by “and”; a condition that tells them apart may be missing. Equal values may be shown once.

Test: Effect of co-administered extracts on the pharmacokinetics of theophylline in rats
Description: Carpediol spissum (Batch No Ex 20404); Swedish Herbal Institute, Gothenburg, Sweden) as described above in Example 1. […] It was analyzed for purity by HPLC, Capillary electrophoresis, ^1H-NMR and ^13C-NMR. • (e) Internal standard: Methyl-4-hydroxybenzoate 99%, F.W. 152.15 Aldrich. • (f) Water, demonized and distilled. • (g) Water for High Performance Capillary Electrophoresis (HPCE), HEWLETT-PACKARD. • (h) Buffer pH=9.3 for HPCE (50 mM Borate). • (i) 0.1N Sodium Hydroxide Solution for HPCE. • (j) Chloroform HPLC grade. • (k) 2-Propanol spectrophotometric grade. • (l) Methanol Chromasorv.
Animals—In this study, 144 time-mated male Wistar rats were used. Breeder: Institute of Fine Organic Chemistry of the National Academy of Science, Yerevan. The initial weight of the animals: 130-170 g (mean weight 149.93±12.4 g). […] All animals were clinically examined upon arrival and any animal showing signs of abnormality or disease was excluded. Animals considered unsuitable for the study were replaced before the start. No animal was replaced following the start of the study.
Dosage and Administration—An appropriate amount of herbal extract was dissolved in distilled water and given at 10:00-10:30 am by oral gavage. Suspensions were shaken gently before oral administration. Suspensions were prepared fresh every day. Control animals were given an appropriate volume of drinking water. Blood samples from rats receiving the carrier only were also analyzed.
Groups of six animals were treated orally with water (10 ml×2 times per day) for three days. 60 minutes after last administration of water, a solution of Aminophylline (10 ml/kg) was given to each animal in dose of 240 mg/kg (corresponding to 192 mg/kg of Theophylline) and blood samples were taken 0.25, 0.5, 1.0, 2.0, 4.0, 6.0 and 8.0 hours after the theophylline administration. A separate group of animals was used for each time point.
It was administered orally in a volume of 10 ml/kg of body weight. Freshly prepared extract was administered two times daily for 3 consecutive days. Single dose—25 mg/kg, daily dose—50 mg/kg. 60 minutes after last administration, a water solution of Aminophylline (10 ml/kg) was given to each animal in dose of 240 mg/kg (corresponding to 192 mg/kg of Theophylline) and blood samples were taken 0.25, 0.5, 1.0, 2.0, 4.0, 6.0 and 8.0 hours after the theophylline administration. A separate group of animals was used for each time point.
One tablet of Jarsin 300 was suspended in 10 ml of water and administered two times daily for 3 consecutive days. 60 minutes after last administration, water solution of Aminophylline (10 ml/kg) was given to each animal in dose of 240 mg/kg (corresponding to 192 mg/kg of Theophylline) and blood samples were taken 0.25, 0.5, 1.0, 2.0, 4.0, 6.0 and 8.0 hours after the theophylline administration. A separate group of animals was used for each time point.
Sampling of blood and sample preparation—Animals were sacrificed by laboratory guillotine. Following decapitation, blood was collected separately in centrifuge tubes and centrifuged at 3000 rpm for 10 min. Blood serum was separated and 50 μl was taken for theophylline assay. Conservation of the samples: the centrifuge tubes were closed with caps, frozen and stored in a freezer for 1-3 days prior to bio-assay.
Analytical Method: Capillary Electrophoresis—A modified capillary electrophoresis method was used, using an internal standard and as a mobile phase 50 mM borate buffer (pH 9.3) without SDS.
Pre-assay preparation—The Ramzan et al. method (52) of extraction of theophylline from serum was modified as follows. 50 μl of blood serum was added to 10 μl of an internal standard methanol solution (methyl-paraben, 60 μg/ml) in centrifuge tube to obtain final concentration of methyl paraben 10 μg/ml. The solution was vortexed vigorously for 10 sec and 1 ml of solvent system of isopropanol. and chloroform in a 5:95 ratio was added for extraction.

[1] = Group 1 (water control), rats, calculated by mean concentrations
[2] = Group 1 (water control), rats, mean of 6 series (column A)
[3] = Group 2 (CRE pretreatment), rats, calculated by mean concentrations
[4] = Group 2 (CRE pretreatment), rats, mean of 6 series (column A)
[5] = Group 3 (Jarsin 300 pretreatment), rats, calculated by mean concentrations
[6] = Group 3 (Jarsin 300 pretreatment), rats, mean of 6 series (column A)

SMILES: Cn1c(=O)c2[nH]cnc2n(C)c1=O [Theophylline, 1,3-dimethylxantin]
- Concentration of Theophylline in Rat Serum (Group 1 (water control), aminophylline 240 mg/kg p.o., 15 min, single rat): 181.11 µg/mL and 172.059 µg/mL and 225.306 µg/mL and 153.35 µg/mL and 146.67 µg/mL and 101.82 µg/mL
- Concentration of Theophylline in Rat Serum (Group 1 (water control), aminophylline 240 mg/kg p.o., 30 min, single rat): 135.41 µg/mL and 89.49 µg/mL and 50.10 µg/mL and 143.18 µg/mL and 337.56 µg/mL and 101.83 µg/mL
- Concentration of Theophylline in Rat Serum (Group 1 (water control), aminophylline 240 mg/kg p.o., 60 min, single rat): 138.11 µg/mL and 194.27 µg/mL and 255.06 µg/mL and 154.77 µg/mL and 231.79 µg/mL and 86.37 µg/mL
- Concentration of Theophylline in Rat Serum (Group 1 (water control), aminophylline 240 mg/kg p.o., 120 min, single rat): 57.30 µg/mL and 71.98 µg/mL and 61.23 µg/mL and 97.22 µg/mL and 56.61 µg/mL
- Concentration of Theophylline in Rat Serum (Group 1 (water control), aminophylline 240 mg/kg p.o., 240 min, single rat): 77.66 µg/mL and 94.86 µg/mL and 114.84 µg/mL and 61.03 µg/mL and 105.31 µg/mL and 169.15 µg/mL
- Concentration of Theophylline in Rat Serum (Group 1 (water control), aminophylline 240 mg/kg p.o., 360 min, single rat): 43.95 µg/mL and 42.46 µg/mL and 73.58 µg/mL and 77.92 µg/mL and 81.94 µg/mL and 31.38 µg/mL
- Concentration of Theophylline in Rat Serum (Group 1 (water control), aminophylline 240 mg/kg p.o., 480 min, single rat): 22.05 µg/mL and 69.25 µg/mL and 63.68 µg/mL and 44.98 µg/mL and 89.99 µg/mL and 16.09 µg/mL
- Clt of Theophylline [1]: 0.4642 mL/min
- Kel of Theophylline [1]: 0.149 h⁻¹
- Vd of Theophylline [1]: 0.1871 L
- Clt of Theophylline, Mean [2]: 0.4973 mL/min and 0.497 ± 0.055 mL/min
- Cmax of Theophylline, Mean [2]: 195.2 ± 32.9 µg/mL
- Kel of Theophylline, Mean [2]: 0.1638 h⁻¹ and 0.164 ± 0.02 h⁻¹
- MRT of Theophylline, Mean [2]: 6.6239 ± 0.70 h
- Vd of Theophylline, Mean [2]: 0.186 ± 0.015 L
- t1/2 of Theophylline, Mean [2]: 4.504 ± 0.47 h
- Clt of Theophylline (Group 1 (water control), rats, single series): 0.441 mL/min and 0.3881 mL/min and 0.4945 mL/min and 0.3453 mL/min and 0.6439 mL/min and 0.671 mL/min
- Concentration of Theophylline in Rat Serum (Group 2 (CRE pretreatment 3 days), aminophylline 240 mg/kg p.o., 15 min, single rat): 192.873 µg/mL and 144.71 µg/mL and 164.57 µg/mL and 161.40 µg/mL and 98.74 µg/mL and 8.06 µg/mL
- Concentration of Theophylline in Rat Serum (Group 2 (CRE pretreatment 3 days), aminophylline 240 mg/kg p.o., 30 min, single rat): 190.52 µg/mL and 145.07 µg/mL and 223.28 µg/mL and 30.54 µg/mL and 154.41 µg/mL and 81.52 µg/mL
- Concentration of Theophylline in Rat Serum (Group 2 (CRE pretreatment 3 days), aminophylline 240 mg/kg p.o., 60 min, single rat): 158.01 µg/mL and 189.11 µg/mL and 120.37 µg/mL and 158.89 µg/mL and 119.72 µg/mL
- Concentration of Theophylline in Rat Serum (Group 2 (CRE pretreatment 3 days), aminophylline 240 mg/kg p.o., 120 min, single rat): 205.63 µg/mL and 140.04 µg/mL and 180.859 µg/mL and 96.55 µg/mL and 68.74 µg/mL and 91.30 µg/mL
- Concentration of Theophylline in Rat Serum (Group 2 (CRE pretreatment 3 days), aminophylline 240 mg/kg p.o., 240 min, single rat): 89.87 µg/mL and 65.03 µg/mL and 61.82 µg/mL and 134.64 µg/mL and 148.86 µg/mL and 115.97 µg/mL
- Concentration of Theophylline in Rat Serum (Group 2 (CRE pretreatment 3 days), aminophylline 240 mg/kg p.o., 360 min, single rat): 35.31 µg/mL and 7.61 µg/mL and 20.21 µg/mL and 233.16 µg/mL and 91.61 µg/mL and 38.01 µg/mL
- Concentration of Theophylline in Rat Serum (Group 2 (CRE pretreatment 3 days), aminophylline 240 mg/kg p.o., 480 min, single rat): 7.16 µg/mL and 34.98 µg/mL and 45.36 µg/mL and 56.71 µg/mL and 33.96 µg/mL and 12.51 µg/mL
- Clt of Theophylline [3]: 0.502 mL/min
- Kel of Theophylline [3]: 0.2042 h⁻¹
- Vd of Theophylline [3]: 0.1475 L
- Clt of Theophylline, Mean [4]: 0.5670 mL/min and 0.567 ± 0.067 mL/min
- Kel of Theophylline, Mean [4]: 0.2706 h⁻¹ and 0.271 ± 0.035 h⁻¹
- Vd of Theophylline, Mean [4]: 0.130 ± 0.014 L
- Cmax of Theophylline (Group 2 (CRE pretreatment), rats, single series): 223.3 µg/mL and 161.4 µg/mL and 158.9 µg/mL and 119.7 µg/mL and 192.9 µg/mL
- Concentration of Theophylline in Rat Serum (Group 3 (Jarsin 300 pretreatment 3 days), aminophylline 240 mg/kg p.o., 15 min, single rat): 4.86 µg/mL and 5.81 µg/mL
- Concentration of Theophylline in Rat Serum (Group 3 (Jarsin 300 pretreatment 3 days), aminophylline 240 mg/kg p.o., 30 min, single rat): 25.01 µg/mL and 34.73 µg/mL and 27.80 µg/mL
- Concentration of Theophylline in Rat Serum (Group 3 (Jarsin 300 pretreatment 3 days), aminophylline 240 mg/kg p.o., 60 min, single rat): 23.33 µg/mL and 30.97 µg/mL and 34.52 µg/mL
- Concentration of Theophylline in Rat Serum (Group 3 (Jarsin 300 pretreatment 3 days), aminophylline 240 mg/kg p.o., 120 min, single rat): 16.13 µg/mL and 44.11 µg/mL and 20.84 µg/mL
- Concentration of Theophylline in Rat Serum (Group 3 (Jarsin 300 pretreatment 3 days), aminophylline 240 mg/kg p.o., 240 min, single rat): 4.46 µg/mL and 16.77 µg/mL and 19.04 µg/mL
- Concentration of Theophylline in Rat Serum (Group 3 (Jarsin 300 pretreatment 3 days), aminophylline 240 mg/kg p.o., 360 min, single rat): 5.85 µg/mL and 11.58 µg/mL
- Concentration of Theophylline in Rat Serum (Group 3 (Jarsin 300 pretreatment 3 days), aminophylline 240 mg/kg p.o., 480 min, single rat): 2.34 µg/mL and 5.71 µg/mL
- Clt of Theophylline [5]: 2.310 mL/min
- Kel of Theophylline [5]: 0.2022 h⁻¹
- Vd of Theophylline [5]: 0.6853 L
- Clt of Theophylline, Mean [6]: 2.671 mL/min and 2.671 ± 0.637 mL/min
- Kel of Theophylline, Mean [6]: 0.2204 h⁻¹ and 0.220 ± 0.033 h⁻¹
- Vd of Theophylline, Mean [6]: 0.722 ± 0.091 L
- Cmax (male, Wistar, rat, in vivo, 240 mg/kg, Cmax of Theophylline, Group 1 (water control), rats, calculated by mean concentrations, 60 minutes): 177 µg/mL
- concentration at 120 min (male, Wistar, rat, in vivo, 240 mg/kg, Concentration of Theophylline in Rat Serum, Group 1 (water control), aminophylline 240 mg/kg p.o., 120 min, single rat): 96.3 µg/mL
- concentration at 15 min (male, Wistar, rat, in vivo, 240 mg/kg, Concentration of Theophylline in Rat Serum, Mean, Group 1 (water control), aminophylline 240 mg/kg p.o., 15 min, mean n=6): 163 µg/mL
- concentration at 30 min (male, Wistar, rat, in vivo, 240 mg/kg, Concentration of Theophylline in Rat Serum, Mean, Group 1 (water control), aminophylline 240 mg/kg p.o., 30 min, mean n=6): 143 µg/mL
- concentration at 60 min (male, Wistar, rat, in vivo, 240 mg/kg, Concentration of Theophylline in Rat Serum, Mean, Group 1 (water control), aminophylline 240 mg/kg p.o., 60 min, mean n=6): 177 µg/mL
- concentration at 120 min (male, Wistar, rat, in vivo, 240 mg/kg, Concentration of Theophylline in Rat Serum, Mean, Group 1 (water control), aminophylline 240 mg/kg p.o., 120 min, mean n=6): 73.4 µg/mL
- concentration at 240 min (male, Wistar, rat, in vivo, 240 mg/kg, Concentration of Theophylline in Rat Serum, Mean, Group 1 (water control), aminophylline 240 mg/kg p.o., 240 min, mean n=6): 104 µg/mL
- concentration at 360 min (male, Wistar, rat, in vivo, 240 mg/kg, Concentration of Theophylline in Rat Serum, Mean, Group 1 (water control), aminophylline 240 mg/kg p.o., 360 min, mean n=6): 58.5 µg/mL
- concentration at 480 min (male, Wistar, rat, in vivo, 240 mg/kg, Concentration of Theophylline in Rat Serum, Mean, Group 1 (water control), aminophylline 240 mg/kg p.o., 480 min, mean n=6): 51 µg/mL
